# ChEMBL document CHEMBL5537115, “New broad-spectrum and potent antibacterial agents with dual-targeting mechanism: Promoting FtsZ polymerization and disrupting bacterial membranes” (Eur J Med Chem, 2024)
# Activity calls are given as the source filed them. The calls are words filed in the database; no cut-off is given here.
# Columns and labels:
# Acinetobacter baumannii [1] = assay: Selectivity ratio of MBC for Acinetobacter baumannii ATCC19606 to MIC for Acinetobacter baumannii ATCC19606; format: functional
# Acinetobacter baumannii [2] = assay: Antibacterial activity against Acinetobacter baumannii ATCC19606 incubated for 18 to 24 hrs; format: functional; conditions: time 18-24 hrs
# Staphylococcus aureus [3] = assay: Selectivity ratio of MBC for Staphylococcus aureus clinical isolate to MIC for Staphylococcus aureus clinical isolate; format: functional
# Staphylococcus aureus [4] = assay: Antibacterial activity against Staphylococcus aureus clinical isolate incubated for 18 to 24 hrs; format: functional; conditions: time 18-24 hrs
# Staphylococcus aureus [5] = assay: Selectivity ratio of MBC for methicillin-resistant Staphylococcus aureus ATCC43300 to MIC for methicillin-resistant Staphylococcus aureus ATCC43300; format: functional
# Bacillus subtilis [6] = assay: Selectivity ratio of MBC for penicillin-susceptible Bacillus subtilis ATCC9372 to MIC for penicillin-susceptible Bacillus subtilis ATCC9372; format: functional
# Bacillus subtilis [7] = assay: Antibacterial activity against penicillin-susceptible Bacillus subtilis ATCC9372 incubated for 18 to 24 hrs; format: functional; conditions: time 18-24 hrs
# Staphylococcus aureus [8] = assay: Antibacterial activity against methicillin-resistant Staphylococcus aureus ATCC43300 incubated for 18 to 20 hrs; format: functional; conditions: time 18-20 hrs
# Staphylococcus aureus [9] = assay: Selectivity ratio of MBC for erythromycin-susceptible Staphylococcus aureus ATCC25923 to MIC for erythromycin-susceptible Staphylococcus aureus ATCC25923; format: functional
# Staphylococcus aureus [10] = assay: Antibacterial activity against erythromycin-susceptible Staphylococcus aureus ATCC25923 incubated for 18 to 24 hrs; format: functional; conditions: time 18-24 hrs
# Streptococcus pyogenes [11] = assay: Antibacterial activity against erythromycin-resistant Streptococcus pyogenes 2 clinical isolate assessed as bacterial growth inhibition incubated for 20 hrs by CLSI based broth microdilution method; format: functional
# [12] = tested on: Staphylococcus epidermidis; assay: Antibacterial activity against penicillin-resistant Staphylococcus epidermidis clinical isolate assessed as bacterial growth inhibition incubated for 20 hrs by CLSI based broth microdilution method; format: functional
# Staphylococcus aureus [13] = assay: Antibacterial activity against Staphylococcus aureus clinical isolate assessed as bacterial growth inhibition incubated for 20 hrs by CLSI based broth microdilution method; format: functional
# Staphylococcus aureus [14] = assay: Antibacterial activity against penicillin-resistant Staphylococcus aureus ATCC31007 assessed as bacterial growth inhibition incubated for 20 hrs by CLSI based broth microdilution method; format: functional
# Staphylococcus aureus [15] = assay: Antibacterial activity against methicillin-resistant Staphylococcus aureus ATCC43300 assessed as bacterial growth inhibition incubated for 20 hrs by CLSI based broth microdilution method; format: functional
# Klebsiella pneumoniae = assay: Antibacterial activity against Klebsiella pneumoniae ATCC BAA-1902 assessed as bacterial growth inhibition incubated for 20 hrs by CLSI based broth microdilution method; format: functional
# Acinetobacter baumannii [16] = assay: Antibacterial activity against Acinetobacter baumannii ATCC19606 assessed as bacterial growth inhibition incubated for 20 hrs by CLSI based broth microdilution method; format: functional
# Escherichia coli [17] = assay: Antibacterial activity against wild-type Escherichia coli BW25113 assessed as bacterial growth inhibition incubated for 20 hrs by CLSI based broth microdilution method; format: functional
# Escherichia coli [18] = assay: Antibacterial activity against penicillin-susceptible Escherichia coli ATCC25922 assessed as bacterial growth inhibition incubated for 20 hrs by CLSI based broth microdilution method; format: functional
# Enterococcus faecium [19] = assay: Antibacterial activity against vancomycin-susceptible Enterococcus faecium ATCC19434 assessed as bacterial growth inhibition incubated for 20 hrs by CLSI based broth microdilution method; format: functional
# Enterococcus faecalis [20] = assay: Antibacterial activity against vancomycin-susceptible Enterococcus faecalis ATCC29212 assessed as bacterial growth inhibition incubated for 20 hrs by CLSI based broth microdilution method; format: functional
# Streptococcus pyogenes [21] = assay: Antibacterial activity against erythromycin-susceptible Streptococcus pyogenes 1 assessed as bacterial growth inhibition incubated for 20 hrs by CLSI based broth microdilution method; format: functional
# Staphylococcus aureus [22] = assay: Antibacterial activity against erythromycin-susceptible Staphylococcus aureus ATCC25923 assessed as bacterial growth inhibition incubated for 20 hrs by CLSI based broth microdilution method; format: functional
# Bacillus pumilus = assay: Antibacterial activity against penicillin-susceptible Bacillus pumilus CMCC63202 assessed as bacterial growth inhibition incubated for 20 hrs by CLSI based broth microdilution method; format: functional
# Bacillus subtilis [23] = assay: Antibacterial activity against penicillin-susceptible Bacillus subtilis ATCC9372 assessed as bacterial growth inhibition incubated for 20 hrs by CLSI based broth microdilution method; format: functional
# Enterococcus faecalis [24] = assay: Antibacterial activity against vancomycin-resistant Enterococcus faecalis ATCC51299 assessed as bacterial growth inhibition incubated for 20 hrs by CLSI based broth microdilution method; format: functional
# Enterococcus faecium [25] = assay: Antibacterial activity against vancomycin-resistant Enterococcus faecium ATCC51559 assessed as bacterial growth inhibition incubated for 20 hrs by CLSI based broth microdilution method; format: functional
# Staphylococcus aureus [26] = assay: Induction of resistance development in Staphylococcus aureus ATCC25923 assessed as fold increase in MIC at 0.5 times MIC measured after 32 days by multi-passage resistance assay relative to control; format: functional; conditions: time 32.0 day
# Staphylococcus aureus [27] = assay: Inhibition of biofilm formation of Staphylococcus aureus ATCC25923 incubated for 20 hrs by crystal violet staining based analysis; format: functional, organism-based
# Staphylococcus aureus [28] = assay: Inhibition of biofilm formation of Staphylococcus aureus ATCC25923 at 0.5 ug/ml incubated for 20 hrs by crystal violet staining based analysis relative to control; format: functional
# Bacillus subtilis [29] = assay: Induction of morphological change in Bacillus subtilis ATCC9372 assessed as increase in cell length at 0.5 times MIC by phase contrast microscopy; format: functional, organism-based
# [30] = molecular target: T1, Cell division protein FtsZ (Bacillus subtilis) (UniProt A5Z1V5); assay: Induction of FtsZ polymerization in Bacillus subtilis at 2.5 to 10 ug/ml preincubated with compound followed by GTP addition by absorbance based assay; conditions: dose 2.5-10 µg/ml, time 40.0 min, TDE = time-dependent effect
# T1 sequence (whole entry): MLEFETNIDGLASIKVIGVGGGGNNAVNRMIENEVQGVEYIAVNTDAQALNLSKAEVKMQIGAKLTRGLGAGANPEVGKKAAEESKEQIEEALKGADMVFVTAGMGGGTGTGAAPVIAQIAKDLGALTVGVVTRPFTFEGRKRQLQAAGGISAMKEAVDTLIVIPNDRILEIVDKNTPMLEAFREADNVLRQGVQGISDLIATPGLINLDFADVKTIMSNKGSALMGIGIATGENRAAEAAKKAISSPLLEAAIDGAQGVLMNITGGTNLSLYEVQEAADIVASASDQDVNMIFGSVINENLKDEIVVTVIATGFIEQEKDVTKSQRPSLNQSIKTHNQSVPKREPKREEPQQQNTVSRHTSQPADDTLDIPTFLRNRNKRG
# [31] = molecular target: T1, Cell division protein FtsZ (Bacillus subtilis); assay: Induction of FtsZ polymerization in Bacillus subtilis preincubated for 10 mins followed by GTP addition measured upto 30 mins by absorbance based assay; conditions: dose 2.5-10 µg/ml, time 40.0 min
# [32] = molecular target: T1, Cell division protein FtsZ (Bacillus subtilis); assay: Induction of FtsZ polymerization in Bacillus subtilis assessed as bundling of FtsZ protofilaments at 10 ug/ml preincubated for 15 mins followed by GTP addition measured after 10 mins by TEM analysis; conditions: dose 10.0 µg/ml, time 25.0 min
# Staphylococcus aureus [33] = assay: Induction of membrane potential depolarization in Staphylococcus aureus ATCC25923 measured after 20 mins by diSC35 dye based spectroscopy; format: functional, organism-based
# Escherichia coli [34] = assay: Induction of membrane potential depolarization in Escherichia coli ATCC25922 measured after 20 mins by diSC35 dye based spectroscopy; format: functional, organism-based
# Staphylococcus aureus [35] = assay: Disruption of inner membrane in Staphylococcus aureus ATCC25923 measured after 12 mins by PI staining based analysis; format: functional, organism-based
# Staphylococcus aureus [36] = assay: Disruption of inner membrane in Staphylococcus aureus ATCC25923 by PI staining based analysis; format: functional, organism-based; conditions: time 12.0 min, TDE = time-dependent effect
# Escherichia coli [37] = assay: Disruption of inner membrane in Escherichia coli ATCC25922 measured after 12 mins by PI staining based analysis; format: functional, organism-based
# Escherichia coli [38] = assay: Disruption of inner membrane in Escherichia coli ATCC25922 by PI staining based analysis; format: functional, organism-based; conditions: time 12.0 min, TDE = time-dependent effect
# Escherichia coli [39] = assay: Disruption of outer membrane in Escherichia coli ATCC25922 measured after 10 mins by NPN dye based analysis; format: functional, organism-based; conditions: dose 4-16 µg/ml
# Staphylococcus aureus [40] = assay: Induction of morphological change in Staphylococcus aureus ATCC25923 assessed as loss of bacterial membrane integrity at 16 times MIC incubated for 2 hrs by TEM analysis; format: functional, organism-based
# Staphylococcus aureus [41] = assay: Induction of morphological change in Staphylococcus aureus ATCC25923 assessed as leakage of cell contents at 16 times MIC incubated for 2 hrs by TEM analysis; format: functional, organism-based
# [42] = Hemolytic activity in mouse erythrocytes at 8 ug/ml incubated for 1 hr by absorbance based assay; format: toxicity, cell-based, Erythrocyte; conditions: at 8 µg/mL, read-out: Activity
# [43] = Hemolytic activity in mouse erythrocytes at 16 ug/ml incubated for 1 hr by absorbance based assay; format: toxicity, cell-based, Erythrocyte; conditions: at 16 µg/mL, read-out: Activity
# Staphylococcus aureus [44] = assay: Antibacterial activity against Staphylococcus aureus ATCC25923 infected in Kunming mouse model assessed as bacterial growth reduction at 25 mg/kg, ip; format: functional, organism-based
# [45] = Hemolytic activity in mouse erythrocytes at 32 ug/ml incubated for 1 hr by absorbance based assay; format: toxicity, cell-based, Erythrocyte; conditions: at 32 µg/mL, read-out: Activity
smiles,measurement,setting,value
Cc1ccccc1-c1c[n+](C)c(-c2ccc(C(C)(C)C)cc2)cc1/C=C/c1ccc(C(C)(C)C)cc1.[I-],Ratio,Acinetobacter baumannii [1],4
same,MBC,Acinetobacter baumannii [2],2 µg/mL
same,Ratio,Staphylococcus aureus [3],2
same,MBC,Staphylococcus aureus [4],0.5 µg/mL
same,Ratio,Staphylococcus aureus [5],1
same,Ratio,Bacillus subtilis [6],32
same,MBC,Bacillus subtilis [7],4 µg/mL
same,MBC,Staphylococcus aureus [8],0.25 µg/mL
same,Ratio,Staphylococcus aureus [9],4
same,MBC,Staphylococcus aureus [10],0.5 µg/mL
same,MIC,Streptococcus pyogenes [11],2 µg/mL
same,MIC,[12],0.5 µg/mL
same,MIC,Staphylococcus aureus [13],0.25 µg/mL
same,MIC,Staphylococcus aureus [14],1 µg/mL
same,MIC,Staphylococcus aureus [15],0.25 µg/mL
same,MIC,Klebsiella pneumoniae,4 µg/mL
same,MIC,Acinetobacter baumannii [16],0.5 µg/mL
same,MIC,Escherichia coli [17],2 µg/mL
same,MIC,Escherichia coli [18],4 µg/mL
same,MIC,Enterococcus faecium [19],0.125 µg/mL
same,MIC,Enterococcus faecalis [20],1 µg/mL
same,MIC,Streptococcus pyogenes [21],2 µg/mL
same,MIC,Staphylococcus aureus [22],0.125 µg/mL
same,MIC,Bacillus pumilus,0.5 µg/mL
same,MIC,Bacillus subtilis [23],0.125 µg/mL
same,MIC,Enterococcus faecalis [24],0.25 µg/mL
same,MIC,Enterococcus faecium [25],0.5 µg/mL
same,fold change (FC),Staphylococcus aureus [26],2
same,inhibition,Staphylococcus aureus [27],Dose-Dependent Effect
same,inhibition at 0.5 µg/mL,Staphylococcus aureus [28],28.8%
same,Activity,Bacillus subtilis [29],Active
same,Activity,[30],Tde
same,Activity,[31],Dose-Dependent Effect
same,Activity,[32],Active
same,Activity,Staphylococcus aureus [33],Dose-Dependent Effect
same,Activity,Escherichia coli [34],Dose-Dependent Effect
same,Activity,Staphylococcus aureus [35],Dose-Dependent Effect
same,Activity,Staphylococcus aureus [36],Tde
same,Activity,Escherichia coli [37],Dose-Dependent Effect
same,Activity,Escherichia coli [38],Tde
same,Activity,Escherichia coli [39],Dose-Dependent Effect
same,Activity,Staphylococcus aureus [40],Active
same,Activity,Staphylococcus aureus [41],Active
same,"hemolysis at 1 h, 8 ug/ml",[42],8.29%
same,"hemolysis at 1 h, 16 ug/ml",[43],18.9%
same,Activity,Staphylococcus aureus [44],Active
C[n+]1cc(-c2ccccc2)c(/C=C/c2ccc(N3CCCC3)cc2)cc1-c1ccc(C(C)(C)C)cc1.[I-],Ratio,Acinetobacter baumannii [1],2
same,MBC,Acinetobacter baumannii [2],2 µg/mL
same,Ratio,Staphylococcus aureus [3],1
same,MBC,Staphylococcus aureus [4],0.5 µg/mL
same,Ratio,Staphylococcus aureus [5],2
same,Ratio,Bacillus subtilis [6],1
same,MBC,Bacillus subtilis [7],0.5 µg/mL
same,MBC,Staphylococcus aureus [8],1 µg/mL
same,Ratio,Staphylococcus aureus [9],8
same,MBC,Staphylococcus aureus [10],1 µg/mL
same,MIC,Streptococcus pyogenes [11],1 µg/mL
same,MIC,[12],1 µg/mL
same,MIC,Staphylococcus aureus [13],0.5 µg/mL
same,MIC,Staphylococcus aureus [14],0.25 µg/mL
same,MIC,Staphylococcus aureus [15],0.5 µg/mL
same,MIC,Klebsiella pneumoniae,16 µg/mL
same,MIC,Acinetobacter baumannii [16],1 µg/mL
same,MIC,Escherichia coli [17],8 µg/mL
same,MIC,Escherichia coli [18],8 µg/mL
same,MIC,Enterococcus faecium [19],2 µg/mL
same,MIC,Enterococcus faecalis [20],0.5 µg/mL
same,MIC,Streptococcus pyogenes [21],0.5 µg/mL
same,MIC,Staphylococcus aureus [22],0.062 µg/mL
same,MIC,Bacillus pumilus,0.062 µg/mL
same,MIC,Bacillus subtilis [23],0.5 µg/mL
same,MIC,Enterococcus faecalis [24],2 µg/mL
same,MIC,Enterococcus faecium [25],2 µg/mL
same,fold change (FC),Staphylococcus aureus [26],2
same,inhibition,Staphylococcus aureus [27],Dose-Dependent Effect
same,inhibition at 0.5 µg/mL,Staphylococcus aureus [28],59.1%
same,Activity,Bacillus subtilis [29],Active
same,Activity,[30],Tde
same,Activity,[31],Dose-Dependent Effect
same,Activity,[32],Active
same,Activity,Staphylococcus aureus [33],Dose-Dependent Effect
same,Activity,Staphylococcus aureus [35],Dose-Dependent Effect
same,Activity,Staphylococcus aureus [36],Tde
same,Activity,Staphylococcus aureus [40],Active
same,Activity,Staphylococcus aureus [41],Active
same,"hemolysis at 1 h, 16 ug/ml",[43],4.65%
same,"hemolysis at 1 h, 32 ug/ml",[45],13.7%
